Data as given in patent US5543496A, “Cyclic bradykinin antagonist peptides” (Scios Nova Inc., priority 1994, dated 1996).
Positions of bridges follow the written chain, without caps; N, C: chain ends. Non-standard residues stand in square brackets, D forms with d. Residues, ends and D or L forms follow the SMILES beside them. Oic = O=C(O)[C@@H]1C[C@@H]2CCCC[C@@H]2N1; dTic = O=C(O)[C@H]1Cc2ccccc2CN1

Experiments:
bradykinin receptor = target: T1, bradykinin receptor (Cavia porcellus, UniProt O70526); assay: 3H-Bradykinin binding assay, guinea pig ileum membranes; conditions: displacement of 3H-bradykinin, terminal ileum homogenate of male Hartley guinea pigs, 90 min ambient temperature
T1 construct: from tissue; host or cells: guinea pig terminal ileum, washed membrane homogenate
T1 sequence (O70526 1-372): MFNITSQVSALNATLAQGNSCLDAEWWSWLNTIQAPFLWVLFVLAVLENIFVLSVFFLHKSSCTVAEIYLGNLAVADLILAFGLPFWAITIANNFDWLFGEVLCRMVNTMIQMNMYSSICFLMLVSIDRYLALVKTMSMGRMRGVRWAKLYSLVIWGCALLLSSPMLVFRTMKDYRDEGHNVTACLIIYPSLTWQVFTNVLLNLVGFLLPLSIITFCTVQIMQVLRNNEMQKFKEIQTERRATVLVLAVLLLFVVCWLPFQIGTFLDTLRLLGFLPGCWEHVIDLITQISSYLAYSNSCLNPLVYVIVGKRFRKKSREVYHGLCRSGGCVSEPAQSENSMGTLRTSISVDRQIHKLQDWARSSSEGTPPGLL
Method: Binding of ^3 H-Bradykinin was performed using the method of D. C. Manning, R. Vavrek, J. M. Stewart, and S. H. Snyder, J. Pharmacol. Exp. Ther., (1986), 237, 504. The tissues used in the binding assay were terminal ileum from male Hartley guinea pigs (150-350 g). After dissection, tissues were placed in 20 vol of ice-cold buffer A (25 mM TES containing 0.2 g/L of 1,10-phenanthroline adjusted of pH 6.8 with ammonium hydroxide) and homogenized using a Ploytron Tissumizer at setting 6 for 15 sec. The homogenate was centrifuged at 50,000×g for 10 min, the supernatant discarded, and the pellet resuspended in ice-cold buffer A by homogenization with the Polytron. Each tissue was homogenized and centrifuged three times. The final pellet was resuspended in buffer A containing bovine serum albumin (1 g/L) and Bacitracin (0.14 g/L) to a final volume of 170 mL/g of the original tissue weight. […] Filters were dissolved in Ready-Safe Fluor (Beckman) for at least 90 min before quantitation by liquid scintillation spectrometry. Kd values were determined using saturation binding and analysis by EBDA (G. A. MacPherson, J. Pharmacol. Methods, (1985), 213), followed by LIGAND (P. J. Munson, D. Rodbard, Anal. Biochem., (1980), 220). Ki values were determined using competitive analysis followed by EBDA and LIGAND. […]

[1] = cited from earlier work
[2] = anesthetized rat, intra-aortic vs intravenous administration; cited from earlier work
[3] = target: T2, bradykinin receptors on intestinal (ileal longitudinal) smooth muscle (Cavia porcellus, UniProt O70526); assay: Bradykinin antagonist activity on guinea pig ileal longitudinal smooth muscle (Schild analysis); type: cell-based; conditions: antagonism of bradykinin-induced contraction, 5 min exposure, read-out: pA2 (converted)
T2 construct: The longitudinal muscle was separated from the underlying circular muscle; from tissue; host or cells: guinea pig ileal longitudinal smooth muscle strips in tissue bath
T2 sequence (O70526 1-372): T1 sequence (O70526 1-372)
Method: Guinea pig intestine was removed and placed in a Petri dish containing Tyrodes solution and cut into 3-4 cm segments. The longitudinal muscle was separated from the underlying circular muscle using a cotton applicator (Paton and Zar, J. Physiol., (1968), 194:13. Muscle strips were connected to isometric force-displacement transducers (Grass or Gould) coupled to a physiograph and placed in tissue baths containing Tyrode's solution at 37° C. Each preparation was suspended under a resting tension of 2 g.
After equilibration of the tissues, appropriate volumes of bradykinin solutions were cumulatively added to the 10 mL tissue baths to increase the concentration of bradykinin in the bath step-by-step without washing out after each single dose. Higher concentrations were added only after the preceding contraction had reached a steady value. […] Antagonism of badykinin responses in the presence of antagonist were determined by repeating the cumulative addition procedure for bradykinin after the tissue has been exposed to the antagonist for 5 minutes. Three or four different concentrations of antagonist are studied sequentially in the same preparations. Responses were expressed as a percentage of the maximum contraction elicited by bradykinin in the absence of antagonist. pA2 values were calculated by Schild analysis.

Molecule: N=C(N)NCCC[C@@H](N)C(=O)N[C@@H](CCCNC(=N)N)C(=O)N[C@H]1CSSC[C@@H](C(=O)N[C@@H](CO)C(=O)N2Cc3ccccc3C[C@@H]2C(=O)N2[C@H](C(=O)N[C@@H](CCCNC(=N)N)C(=O)O)C[C@@H]3CCCC[C@@H]32)NC(=O)CNC(=O)[C@@H]2CCCN2C1=O [drawing 23] (H-[dR]RCPGCS[dTic][Oic]R-OH; disulfide 3-6)
- Ki (bradykinin receptor): 1.5 ± 0.1 nM

Molecule: Bradykinin (RPPGFSPFR; Bradykinin; UniProt P01042 381-389, looked up) [nonapeptide hormone, native agonist]
- half life in the systemic circulation [1]: less than 30 seconds
- destruction on a single passage through the pulmonary circulation [2]: 98-99%

Molecule: NC(N)=NCCC[C@@H](N)C(=O)N[C@@H](CCCN=C(N)N)C(=O)N[C@H]1CSSC[C@@H](C(=O)N2Cc3ccccc3C[C@@H]2C(=O)N2[C@H](C(=O)N[C@@H](CCCN=C(N)N)C(=O)O)C[C@@H]3CCCC[C@@H]32)NC(=O)[C@H](Cc2ccccc2)NC(=O)CNC(=O)[C@@H]2CCCN2C1=O (H-[dR]RCPGFC[dTic][Oic]R-OH; disulfide 3-7)
- Ki (bradykinin receptor): 14.8 ± 0.34 nM

Molecule: N=C(N)NCCC[C@@H](N)C(=O)N[C@@H](CCCNC(=N)N)C(=O)N[C@H]1CSSC[C@@H](C(=O)N[C@@H](CO)C(=O)N2Cc3ccccc3C[C@@H]2C(=O)N2[C@H](C(=O)N[C@@H](CCCNC(=N)N)C(=O)O)C[C@@H]3CCCC[C@@H]32)NC(=O)CNC(=O)[C@@H]2CCCN2C1=O [drawing 26] (H-[dR]RCPGCS[dTic][Oic]R-OH; disulfide 3-6)
- Kb [3]: 251 nM
